# Reference: patent US20090318366A1, “CHOLESTEROL LOWERING PROTEIN HYDROLYSATES” (DSM IP ASSETS B.V., priority 2006, published 2009)
# Marks after values point to notes of the source that are not given here.
# Experiments:
# Fisher F344 rats [1] = assay: Hypocholesterolemic effects of five small peptides in Fisher F344 rats, hypercholesterolemic rat model (Example 9); type: in vivo; conditions: 100 mg/kg BW oral, 7 days, mean ± SD, n = 9-10; for HDL cholesterol (plasma): control 0.14 ± 0.08; for Total cholesterol (plasma): control 10.1 ± 2.2; for non HDL cholesterol (plasma): total minus HDL cholesterol, control 10.0 ± 2.2
# Description: In short eighty male Fisher rats (F344) from Charles River (Sulzfeld, Germany), weighing 65-96 g were housed individually with free access to water and feed, with an alternating 12-hour light-dark cycle. The animals were fed a rodent atherogenic diet high in cholesterol and fat for the 2 weeks preceding the treatment. The macro-nutrient composition of the diet was as follows (g/100 g anhydrous mix): protein 20.8; fiber 4.2; fat 15; carbohydrate 48. The diet also contained 1.25 wt % cholesterol, 0.5 wt % sodium cholate and a standard vitamin and mineral mix, prepared according to rat nutritional requirements. The main fats consisted of cacoa butter (7.5 wt %) and soja oil (4.35 wt %). After 2 weeks of adaptation to the diet the rats were randomized according to body weight into […] of 10 animals. The […] were treated orally every morning for 7 days with either water (control group) or one of the following peptides: RPRPS, RGRPS, HPHPH, RPRP, KPKPS, at a dose of 100 mg/kg body weight (BW) while continuing the aetherogenic diet. There was no difference in feed consumption over the whole experiment. The day before the last administration, all animals were dosed orally in the evening and deprived of food overnight (14 hours) but allowed free access to water. At day 7 the fasted rats were treated again orally in the morning and after two hours the animals were sacrificed by withdrawing blood from the vena Cava under Isoflurane anesthesia. Blood was collected into tubes containing EDTA as an anticoagulant. Plasma was prepared from the blood by immediate centrifugation at 1600 g for 10 minutes at 4° C. Assays of plasma cholesterol and HDL-cholesterol (precipitation method) were determined enzymatically on a Hitachi 912 automatic analyzer (Roche Diagnostica, Switzerland). Non-HDL cholesterol was calculated by difference between total cholesterol and HDL cholesterol. One animal in the control group was excluded from the analysis due to hemolytic plasma which interfered with the measurements. All data are expressed as means±standard deviation (SD) for animals in each diet group, with n being the number of rats. Statistical significance of the mean differences between dietary groups was tested by one-way analysis of variance (ANOVA). If significant differences were found, the Dunnett's test for multiple comparison was used to compare each group to the control group. P values less than 0.05 were considered significant (Table 3).
# [2] = Solubility of cholesterol in mixed micelles (intramicellar cholesterol after 24 h at 37° C., centrifugation and filtration); conditions: 10 mg/ml test substance, 0.5 mM cholesterol, 6.6 mM taurocholate, 2.4 mM lecithin, pH 7.4, control 0.494
# Protocol: The mixed micelles were prepared according to the method described by Nagaoka et al. (Biochemical and Biophysical Research Communications 281: 11-17 (2001)) by sonication of a 15 mM phosphate buffer saline (PBS) solution containing 6.6 mM taurocholate, 2.4 mM lecithin, 0.5 mM cholesterol and either 10 mg/ml of octapeptide (RPRPRPSF, MW1012) or 10 mg/ml soy protein (SUPRO 760, Solea Belgium) at pH 7.4. The lipids, phospholipids and cholesterol were dissolved in methanol and dried before adding the PBS buffer and the peptides or the soy protein at a final concentration of 10 mg/ml. The resulting micellar solution was kept at 37° C. for 24 hours and centrifuged at 1000×g for 10 min. In order to separate any precipitated cholesterol from the intramicellar cholesterol the solution was then filtered through a 0.22 μm MILLEX-GP filter (Millipore, Bedford, Mass., USA). The intramicellar concentration of cholesterol was then determined enzymatically using a cholesterol kit and a Hitachi 912 automatic analyzer from Roche Diagnostica, Switzerland.
# [3] = In vivo efficacy of peptide RPRPRPSF with and without beta-sitosterol (protocol of Nagaoka et al.); conditions: in combination with beta-sitosterol
# Description: Peptide RPRPRPSF is chemically synthesized and beta-sitosterol is obtained from Sigma. Both compounds, apart and in combination, are subjected to a testing protocol which is essentially similar to the in vivo testing protocol described by Nagaoka et al., BBRC 281 (2001) 11-17.
# Fisher F344 rats [4] = assay: Hypocholesterolemic effects of peptides in Fisher F344 rats on atherogenic diet (Example 8); type: in vivo, rat; conditions: 7 days; for HDL cholesterol (plasma) / Total cholesterol (plasma) / non HDL cholesterol (plasma): mean ± SD, n = 10; for HDL cholesterol (plasma): control 0.22 ± 0.12; for Total cholesterol (plasma): control 12.8 ± 3.1; for non HDL cholesterol (plasma): total minus HDL cholesterol, control 12.5 ± 3.1
# Description: Forty male Fisher rats (F344) from Charles River (Sulzfeld, Germany), weighing 70-85 g were housed individually with free access to water and feed, with an alternating 12-hour light-dark cycle. The animals were fed a rodent atherogenic diet high in cholesterol and fat for the 2 weeks preceding the treatment. The macro-nutrient composition of the diet was as follows (g/100 g anhydrous mix): protein 20.8; fiber 4.2; fat 15; carbohydrate 48. The diet also contained 1.25 wt % cholesterol, 0.5 wt % sodium cholate and a standard vitamin and mineral mix, prepared according to rat nutritional requirements. The main fats consisted of cacoa butter (7.5 wt %) and soja oil (4.35 wt %). After 2 weeks of adaptation to the diet the rats were randomized according to body weight into four experimental groups of 10 animals. The four groups were treated orally every morning for 7 days with either water (control group) or octapeptide (RPRPRPSF) at two doses of 200 and 800 mg/kg body weight (BW) respectively or soy protein (SUPRO 760) at 800 mg/kg BW while continuing the aetherogenic diet. There was no difference in feed consumption over the whole experiment. The day before the last administration, all animals were dosed orally in the evening and deprived of food overnight (14 hours) but allowed free access to water. At day 7 the fasted rats were treated again orally in the morning and after two hours the animals were sacrificed by withdrawing blood from the vena Cava under Isoflurane anesthesia. Blood was collected into tubes containing EDTA as an anticoagulant. Plasma was prepared from the blood by immediate centrifugation at 1600 g for 10 minutes at 4° C. Assays of plasma cholesterol and HDL-cholesterol (precipitation method) were determined enzymatically on a Hitachi 912 automatic analyzer (Roche Diagnostica, Switzerland). Non-HDL cholesterol was calculated by difference between total cholesterol and HDL cholesterol. All data are expressed as means±standard deviation (SD) for animals in each diet group, with n being the number of rats. Statistical significance of the mean differences between dietary groups was tested by one-way analysis of variance (ANOVA). If significant differences were found, the Dunnett's test for multiple comparison was used to compare each group to the control group. P values less than 0.05 were considered significant (Table 2).
# [5] = 200 and 800 mg/Kg BW oral, p < 0.05
Substance,HDL cholesterol (plasma) (Fisher F344 rats [1]),Total cholesterol (plasma) (Fisher F344 rats [1]),non HDL cholesterol (plasma) (Fisher F344 rats [1]),further results
HPHPH,0.29 ± 0.13^b mmol/L,3.4 ± 1.2^b mmol/L,3.1 ± 1.3^b mmol/L,–
KPKPS,0.29 ± 0.11^b mmol/L,3.0 ± 1.0^b mmol/L,2.7 ± 1.0^b mmol/L,–
RGRPS,0.37 ± 0.14^b mmol/L,3.2 ± 0.4^b mmol/L,2.9 ± 0.4^b mmol/L,–
RPRP,0.33 ± 0.11^b mmol/L,2.9 ± 0.4^b mmol/L,2.6 ± 0.4^b mmol/L,–
"RPRPRPSF [synthetic octapeptide R-P-R-P-R-P-S-F, MW1012]",–,–,–,"Cholesterol content of the micellar solution ([2]; listed as Octapeptide): 0.153 mmol/L; Cholesterol content of the micellar solution ([2]; listed as octapeptide (RPRPRPSF)): drastically decreased; Effect on cholesterol in vivo [3]: further enhanced; HDL cholesterol (plasma) (Fisher F344 rats [4]; 200 mg/Kg BW oral): 0.54 ± 0.20^b mmol/L; Total cholesterol (plasma) (Fisher F344 rats [4]; 200 mg/Kg BW oral): 4.1 ± 1.2^b mmol/L; non HDL cholesterol (plasma) (Fisher F344 rats [4]; 200 mg/Kg BW oral): 3.6 ± 1.2^b mmol/L; HDL cholesterol (plasma) (Fisher F344 rats [4]; 800 mg/Kg BW oral): 0.51 ± 0.17^b mmol/L; Total cholesterol (plasma) (Fisher F344 rats [4]; 800 mg/Kg BW oral): 3.4 ± 0.7^b mmol/L; non HDL cholesterol (plasma) (Fisher F344 rats [4]; 800 mg/Kg BW oral): 2.9 ± 0.7^b mmol/L; Non-HDL cholesterol (VLDL-cholesterol+LDL-cholesterol) levels as compared to the control group (Fisher F344 rats [4]; [5]): significantly lowered; Plasma total cholesterol levels as compared to the control group (Fisher F344 rats [4]; [5]): significantly lowered; Ratio of non-HDL cholesterol to HDL-cholesterol (Fisher F344 rats [4]; oral): positively affected; Plasma HDL-cholesterol compared to the control group (Fisher F344 rats [4]; oral, p < 0.05): significantly increased"
RPRPS,0.29 ± 0.06^b mmol/L,3.6 ± 1.1^b mmol/L,3.3 ± 1.2^b mmol/L,–
